From patent US20230181611A1, “REELIN/VEGF-C PRODUCTION/ACTIVATION PROMOTER AND SKIN EXTERNAL COMPOSITION USING THE SAME” (AMOREPACIFIC CORPORATION, priority 2021, published 2023)

Tests used:
[1] = test system: Human dermal lymphatic endothelial cells (HDLEC); test: Cytotoxicity analysis (WST-8 cell viability); type: cell-based; conditions: 0 to 200 ppm (μg/ml), 24 hours and 72 hours, FIG. 1
Method: Human dermal lymphatic endothelial cells (HDLEC, PromoCell, Germany) were newly cultured in 96 well dishes for one day and then treated with a compound represented by Chemical Formula E-1 (Biogenics Company) at each concentration of 0 ppm (μg/ml) to 200 ppm (μg/ml). The cells were cultured for 24 hours and 72 hours, and then measured with respect to absorbance at 450 nm by using a QuantiMax WST-8 Cell viability assay kit to check cell viability, and the results are shown in FIG. 1.

VEGF-C = VEGF-C cytokine analysis (ELISA); type: cell-based, human; conditions: HDLEC, 1 ppm and 10 ppm, 48 hours, DMSO control = 100%, FIG. 3
Method: After culturing human dermal lymphatic endothelial cells in 6 well plates for 24 hours, while the cells treated with DMSO as a control (reference, 100%), the cells were treated with the compound represented by Chemical Formula E-1 at each concentration of 1 ppm and 10 ppm and cultured for 48 hours and then measured with respect to production and activity of VEGF-C through a VEGF-C cytokine analysis by using a VEGFC human ELISA Kit (ThermoFisher, U.S.A.) according to a manual, and the results are shown in FIG. 3.

reelin = test: Reelin cytokine analysis (ELISA); type: cell-based, human; conditions: HDLEC, 10 ppm, 48 hours, DMSO control = 100%, FIG. 2
Method: After culturing human dermal lymphatic endothelial cells in 6 well plates for 24 hours, while the cells treated with DMSO were used as a control (reference, 100%), the cells were treated with the compound represented by Chemical Formula E-1 at a concentration of 10 ppm and cultured for 48 hours and then measured with respect to production and activity of reelin through a reelin cytokine analysis by using human ELISA Kit (Mybiosource, U.S.A.) according to a manual, and the results are shown in FIG. 2.

CC1(C)[C@@H](O[C@H]2OC(C(=O)O)[C@@H](O)C(O)C2O[C@@H]2OC(C(=O)O)[C@@H](O)C(O)C2O)CC[C@]2(C)[C@H]3C(=O)C=C4[C@@H]5C[C@@](C)(C(=O)O)CC[C@]5(C)CC[C@@]4(C)[C@]3(C)CC[C@@H]12 (stereo partly drawn) [Chemical Formula E-1]
cytotoxicity (cell viability) [1]: no cytotoxicity
production and activity of VEGF-C compared with the control (VEGF-C): further improve production and activity of VEGF-C
production and activity of reelin compared with the control (reelin): further improve production and activity of reelin
